Consider 23 compounds from US20240294531A1, “COVALENT HETEROCYCLES AND USES THEREOF” (Kumquat Biosciences Inc., priority 2022, published 2024).

One assay deals with BTK wildtype protein (Homo sapiens (Human), UniProt Q06187). As to the kind of experiment: BTK wildtype HTRF displacement assay. The assay is classed as binding. To be noted: 1-hour incubation; read-out: BTK (wt) IC50. A digest of the protocol:
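Full-length N-terminal GST-tagged BTK incubated 1 h at room temperature with compound (6 doses, four-fold dilutions from 5 μM top) plus kinase tracer 239 and anti-GST-Tb antibody. Tracer displacement read as TR-FRET 665/620 ratio, background-subtracted using no-protein control. IC50 from four-parameter fit constrained 0–100% inhibition.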

For a further assay, the target named is BTK C481S protein (Homo sapiens (Human), UniProt Q06187, C481S). As to the kind of experiment: BTK C481S HTRF displacement assay. The assay is classed as binding. To be noted: 1-hour incubation. The method in brief: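 N-terminal GST-tagged BTK C481S (2-659) incubated 1 hour at room temperature with compound (6 doses, four-fold from 5 μM), 50 nM kinase tracer 239 and anti-GST-Tb antibody. TR-FRET 665/620 ratio, background-subtracted; IC50 from constrained four-parameter fit. KI=IC50/(1+[Tracer]/Kd), tracer Kd 54 nM.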
Chain of BTK C481S protein (Q06187 2-659 C481S): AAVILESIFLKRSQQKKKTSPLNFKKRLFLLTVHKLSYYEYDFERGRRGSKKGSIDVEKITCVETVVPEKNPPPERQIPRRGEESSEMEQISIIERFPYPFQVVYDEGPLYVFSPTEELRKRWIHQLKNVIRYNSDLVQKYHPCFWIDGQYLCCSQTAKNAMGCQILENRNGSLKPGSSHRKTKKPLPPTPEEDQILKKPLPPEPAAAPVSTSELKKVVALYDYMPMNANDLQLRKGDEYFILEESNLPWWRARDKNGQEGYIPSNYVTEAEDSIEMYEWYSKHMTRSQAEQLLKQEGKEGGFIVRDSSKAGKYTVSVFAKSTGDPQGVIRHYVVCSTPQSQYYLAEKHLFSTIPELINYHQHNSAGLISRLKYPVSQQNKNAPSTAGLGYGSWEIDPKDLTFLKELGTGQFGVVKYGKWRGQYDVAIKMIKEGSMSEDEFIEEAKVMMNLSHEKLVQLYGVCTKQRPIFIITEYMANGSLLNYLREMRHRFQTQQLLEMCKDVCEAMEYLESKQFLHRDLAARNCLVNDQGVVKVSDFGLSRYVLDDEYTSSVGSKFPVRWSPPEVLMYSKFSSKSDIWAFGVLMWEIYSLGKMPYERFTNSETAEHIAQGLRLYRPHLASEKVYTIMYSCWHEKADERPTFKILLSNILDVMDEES

Chain of BTK wildtype protein (Q06187 2-659): as the sequence (Q06187 2-659 C481S) above, with S480C counted along it

In the case of `COc1ccc(F)cc1C(=O)NCc1ccc(-c2nn(C3(CN(C)C(=O)n4cncn4)CC3)c3ncnc(N)c23)cc1` [Compound 188, N-((1-(4-amino-3-(4-((5-fluoro-2-methoxybenzamido)methyl)phenyl)-1H-pyrazolo[3,4-d]pyrimidin-1-yl)cyclopropyl)methyl)-N-methyl-1H-1,2,4-triazole-1-carboxamide], the IC50 on BTK wildtype protein is at most 1000 nM; on BTK C481S protein, above 1000 nM.
With `CN(C(=O)n1cncn1)C1CCC(C2CCNc3c(C(N)=O)c(-c4ccc(Oc5ccccc5)cc4)nn32)CC1` (stereo not shown) [Compound 196, 7-(4-(N-methyl-1H-1,2,4-triazole-1-carboxamido)cyclohexyl)-2-(4-phenoxyphenyl)-4,5,6,7-tetrahydropyrazolo[1,5-a] pyrimidine-3-carboxamide], the IC50 on BTK wildtype protein and on BTK C481S protein was at most 1000 nM in each case.
Regarding `COc1nn(C)cc1Nc1nc(N2CCCC(N(C)C(=O)n3cncn3)C2)nc2c1ncn2C` (stereo not shown) [Compound 300, N-(1-(6-((3-methoxy-1-methyl-1H-pyrazol-4-yl)amino)-9-methyl-9H-purin-2-yl)piperidin-3-yl)-N-methyl-1H-1,2,4-triazole-1-carboxamide], the IC50 at BTK wildtype protein was above 1000 nM; at BTK C481S protein it was at most 1000 nM.
The corresponding values for `COc1ccc(F)cc1C(=O)NCc1ccc(-c2nn(C3CCCN(C(=O)n4cncn4)C3)c(N)c2C(N)=O)cc1` (stereo not shown) [Compound 124, 1-(1-(1H-1,2,4-triazole-1-carbonyl)piperidin-3-yl)-5-amino-3-(4-((5-fluoro-2-methoxybenzamido)methyl)phenyl)-1H-pyrazole-4-carboxamide] are at most 1000 nM and at most 1000 nM.
The corresponding values for `CN(C(=O)n1cnc(Cl)n1)C1CCC(n2nc(-c3ccc(Oc4ccccc4)cc3)c3c(N)ncnc32)CC1` (stereo not shown) [Compound 299, N-(4-(4-amino-3-(4-phenoxyphenyl)-1H-pyrazolo[3,4-d]pyrimidin-1-yl)cyclohexyl)-3-chloro-N-methyl-1H-1,2,4-triazole-1-carboxamide] are at most 1000 nM and at most 1000 nM.
Take `COc1nn(C)cc1Nc1nc(N2CCCC3(CCN3C(=O)n3cncn3)C2)nc2c1ncn2C` (stereo not shown) [Compound 102, (6-(6-((3-methoxy-1-methyl-1H-pyrazol-4-yl)amino)-9-methyl-9H-purin-2-yl)-1,6-diazaspiro[3.5]nonan-1-yl) (1H-1,2,4-triazol-1-yl)methanone]: the IC50 at BTK wildtype protein and on BTK C481S protein was above 1000 nM throughout.
For the compound `CN(C(=O)n1cncn1)C1CCC2CNc3c(C(N)=O)c(-c4ccc(Oc5ccccc5)cc4)nn3C2C1` (stereo not shown) [Compound 234, 8-(N-methyl-1H-1,2,4-triazole-1-carboxamido)-2-(4-phenoxyphenyl)-4,5,5a,6,7,8,9,9a-octahydro-pyrazolo[1,5-a]quinazoline-3-carboxamide], the IC50 at BTK wildtype protein and at BTK C481S protein was above 1000 nM throughout.
On to `COc1ccc(F)cc1C(=O)NCc1ccc(-c2nn(CC3CCC(N(C)C(=O)n4cncn4)C3)c3ncnc(N)c23)cc1` (stereo not shown) [Compound 311, N-(3-((4-amino-3-(4-((5-fluoro-2-methoxybenzamido)methyl)phenyl)-1H-pyrazolo[3,4-d]pyrimidin-1-yl)methyl)cyclopentyl)-N-methyl-1H-1,2,4-triazole-1-carboxamide], for which the IC50 at BTK wildtype protein and at BTK C481S protein was at most 1000 nM in each case.
With `COc1ccc(F)cc1C(=O)NCc1ccc(-c2nn(C(Cc3ccccn3)CN(C)C(=O)n3cncn3)c3ncnc(N)c23)cc1` (stereo not shown) [Compound 268, N-(2-(4-amino-3-(4-((5-fluoro-2-methoxybenzamido)methyl)phenyl)-1H-pyrazolo[3,4-d]pyrimidin-1-yl)-3-(pyridin-2-yl)propyl)-N-methyl-1H-1,2,4-triazole-1-carboxamide], the 50% inhibitory concentration (IC50) on BTK wildtype protein and on BTK C481S protein was above 1000 nM each time.
Consider `Cc1[nH]c2c(C(N)=O)cc(F)c(N3CCCC4(CCN4C(=O)n4cncn4)C3)c2c1C` (stereo not shown) [Compound 171, 4-(1-(1H-1,2,4-triazole-1-carbonyl)-1,6-diazaspiro[3.5]nonan-6-yl)-5-fluoro-2,3-dimethyl-1H-indole-7-carboxamide], for which the IC50 at BTK wildtype protein and at BTK C481S protein was at most 1000 nM each time.
For `CC(CC1CCNc2c(C(N)=O)c(-c3ccc(Oc4ccccc4)cc3)nn21)N(C)C(=O)n1cncn1` (stereo not shown) [Compound 309, 7-(2-(N-methyl-1H-1,2,4-triazole-1-carboxamido)propyl)-2-(4-phenoxyphenyl)-4,5,6,7-tetrahydro-pyrazolo[1,5-a]pyrimidine-3-carboxamide], the IC50 at BTK wildtype protein and at BTK C481S protein was at most 1000 nM each time.
Regarding `NC(=O)c1c(-c2ccc(Oc3ccccc3)cc2)nn(C2CCC3(C2)CN(C(=O)n2cncn2)C3)c1N` (stereo not shown) [Compound 165, 1-(2-(1H-1,2,4-triazole-1-carbonyl)-2-azaspiro[3.4]octan-6-yl)-5-amino-3-(4-phenoxyphenyl)-1H-pyrazole-4-carboxamide], the IC50 on BTK wildtype protein and at BTK C481S protein was at most 1000 nM in each case.
As for `COc1ccc(F)cc1C(=O)NCc1ccc(-c2nn(C(C)CN(C(=O)n3cncn3)C3CC3)c3ncnc(N)c23)cc1` (stereo not shown) [Compound 230, N-(2-(4-amino-3-(4-((5-fluoro-2-methoxybenzamido)methyl)phenyl)-1H-pyrazolo[3,4-d]pyrimidin-1-yl)propyl)-N-cyclopropyl-1H-1,2,4-triazole-1-carboxamide], the IC50 on BTK wildtype protein was above 1000 nM; on BTK C481S protein, at most 1000 nM.
The corresponding values for `COc1ccc(F)cc1C(=O)NCc1ccc(-c2nn(CC3C(C)CCCN3C(=O)n3cncn3)c3ncnc(N)c23)cc1` (stereo not shown) [Compound 271, N-(4-(4-amino-1-((3-methyl-1-(1H-1,2,4-triazole-1-carbonyl)piperidin-2-yl)methyl)-1H-pyrazolo[3,4-d]pyrimidin-3-yl)benzyl)-5-fluoro-2-methoxybenzamide] are above 1000 nM and above 1000 nM.
`COc1ccc(F)cc1C(=O)NCc1ccc(-c2nn(C[C@H]3CCN3C(=O)n3cncn3)c3ncnc(N)c23)cc1` [Compound 108, (R)-N-(4-(1-((1-(1H-1,2,4-triazole-1-carbonyl)azetidin-2-yl)methyl)-4-amino-1H-pyrazolo[3,4-d]pyrimidin-3-yl)benzyl)-5-fluoro-2-methoxybenzamide]: the IC50 on BTK wildtype protein and at BTK C481S protein was at most 1000 nM in each case.
As for `COc1ccc(F)cc1C(=O)NCc1ccc(-c2nn(CC(N(C)C(=O)n3cncn3)C(F)(F)F)c(N)c2C(N)=O)cc1` (stereo not shown) [Compound 186, N-(3-(5-amino-4-carbamoyl-3-(4-((5-fluoro-2-methoxybenzamido)methyl)phenyl)-1H-pyrazol-1-yl)-1,1,1-trifluoropropan-2-yl)-N-methyl-1H-1,2,4-triazole-1-carboxamide], the IC50 on BTK wildtype protein and at BTK C481S protein was at most 1000 nM each time.
On to `COc1ccc(F)cc1C(=O)NCc1ccc(-c2nn(C(CC3CC3)CN(C)C(=O)n3cncn3)c3ncnc(N)c23)cc1` (stereo not shown) [Compound 127, N-(4-(4-amino-3-(4-((5-fluoro-2-methoxybenzamido)methyl)phenyl)-1H-pyrazolo[3,4-d]pyrimidin-1-yl)-3-cyclopropylpropyl)-N-methyl-1H-1,2,4-triazole-1-carboxamide], for which the IC50 on BTK wildtype protein and at BTK C481S protein was above 1000 nM throughout.
In the case of `COCCC(Cn1nc(-c2ccc(CNC(=O)c3cc(F)ccc3OC)cc2)c2c(N)ncnc21)N(C)C(=O)n1cncn1` (stereo not shown) [Compound 214, N-(1-(4-amino-3-(4-((5-fluoro-2-methoxybenzamido)methyl)phenyl)-1H-pyrazolo[3,4-d]pyrimidin-1-yl)-4-methoxy-butan-2-yl)-N-methyl-1H-1,2,4-triazole-1-carboxamide], the IC50 at BTK wildtype protein and on BTK C481S protein was above 1000 nM each time.
For the compound `COc1ccc(F)cc1C(=O)NCc1ccc(-c2nn(C(C)C3CCCCN3C(=O)n3cncn3)c3ncnc(N)c23)cc1` (stereo not shown) [Compound 304, N-(4-(1-(1-(1-(1H-1,2,4-triazole-1-carbonyl)piperidin-2-yl)ethyl)-4-amino-1H-pyrazolo[3,4-d]pyrimidin-3-yl)benzyl)-5-fluoro-2-methoxybenzamide], the IC50 on BTK wildtype protein and at BTK C481S protein was at most 1000 nM throughout.
`NC(=O)c1c(-c2ccc(Oc3ccccc3)cc2)nn2c1NCC1CCN(C(=O)n3cncn3)CC12` (stereo not shown) [Compound 288, 2-(4-phenoxyphenyl)-8-(1H-1,2,4-triazole-1-carbonyl)-4,5,5a,6,7,8,9,9a-octahydropyrazolo[1,5-a]pyrido [4,3-e]pyrimidine-3-carboxamide]: the IC50 on BTK wildtype protein and at BTK C481S protein was at most 1000 nM in each case.
As for `COc1ccc(F)cc1C(=O)NCc1ccc(-c2nn(C(C)CC3CCCCN3C(=O)n3cncn3)c3ncnc(N)c23)cc1` (stereo not shown) [Compound 129, N-(4-(1-(1-(1-(1H-1,2,4-triazole-1-carbonyl)piperidin-2-yl)propan-2-yl)-4-amino-1H-pyrazolo[3,4-d]pyrimidin-3-yl)benzyl)-5-fluoro-2-methoxybenzamide], the IC50 at BTK wildtype protein and at BTK C481S protein was above 1000 nM each time.
With `NC(=O)c1c(-c2ccc(Oc3ccccc3)cc2)nn2c1NCC[C@H]2[C@@H]1CCCCN1C(=O)n1cncn1` [Compound 223, (S)-7-((S)-1-(1H-1,2,4-triazole-1-carbonyl)piperidin-2-yl)-2-(4-phenoxyphenyl)-4,5,6,7-tetrahydropyrazolo[1,5-a] pyrimidine-3-carboxamide], the IC50 at BTK wildtype protein and on BTK C481S protein was above 1000 nM each time.
Take `CC[C@@H](Cn1nc(-c2ccc(CNC(=O)c3cc(F)ccc3OC)cc2)c2c(N)ncnc21)N(C)C(=O)n1cncn1` [Compound 204, (S)-N-(1-(4-amino-3-(4-((5-fluoro-2-methoxybenzamido)methyl)phenyl)-1H-pyrazolo[3,4-d]pyrimidin-1-yl)butan-2-yl)-N-methyl-1H-1,2,4-triazole-1-carboxamide]: the IC50 at BTK wildtype protein and at BTK C481S protein was at most 1000 nM each time.
